The record followed here is DBAASP.

Test systems include Bacillus subtilis 168; Escherichia coli ESBL; Pseudomonas aeruginosa; Staphylococcus aureus MR; Escherichia coli ML-35p.
Common to all, as to experiment: ≥ marks a high value that may be exact or a test limit, other limits are often not marked, values filed in µg/mL are converted to µM
Experiment [1] concerns Escherichia coli DH5alpha.
Experiment [2] deals with Mycobacterium tuberculosis H37Ra.
The test system of experiment [3] is Pseudomonas aeruginosa PAO1.
In experiment [4] the test system is Staphylococcus aureus NRS 72.
Experiment [5] deals with Staphylococcus aureus USA 300.
The test system of experiment [6] is Escherichia coli NBRC 14237.
Experiment [7] deals with Saccharomyces cerevisiae NBRC 10217.
Experiment [8] relates to Staphylococcus aureus NBRC 12732.
The subject of experiment [9] is Aspergillus oryzae NBRC 100959.
Experiment [10] relates to Candida viswanathii NBRC 10321.
Experiment [11] has as its system Escherichia coli NBRC 3972.
Experiment [12] deals with Micrococcus luteus NBRC 3333.
Experiment [13] has as its system Staphylococcus epidermidis NBRC 12993.
Experiment [14] concerns Escherichia coli ATCC 25922.
Experiment [15] has as its system Pseudomonas aeruginosa ATCC 27853.
For experiment [16], the system named is Staphylococcus aureus ATCC 25923.
Experiment [17] concerns Staphylococcus aureus ATCC 29213.
The subject of experiment [18] is Staphylococcus aureus ATCC BAA-1696.
The subject of experiment [19] is Staphylococcus aureus Xen36.
Experiment [20] deals with Candida albicans NCTC 1467.
For experiment [21], the system named is Escherichia coli NCTC 10418.
In experiment [22] the test system is Klebsiella pneumoniae ATCC 43816.
Experiment [23] deals with Staphylococcus aureus NCTC 10788.
The subject of experiment [24] is Staphylococcus aureus NCTC 12493.
Experiment [25] concerns Acinetobacter baumannii 7226/16.
Experiment [26] relates to Escherichia coli ESBL 521/17.
Experiment [27] concerns Klebsiella pneumoniae ESBL 344/17.
For experiment [28], the system named is Pseudomonas aeruginosa 522/17.
Experiment [29] concerns Staphylococcus aureus 1399/17.
In experiment [30] the test system is Staphylococcus aureus ATCC 33591.
In experiment [31] the test system is Staphylococcus aureus SG511.

Converted amounts (≈) assume the structure as drawn.

A word on the MIC: it is the least concentration at which growth counts as inhibited. Turning to `CC(C)C[C@H](NC(=O)[C@H](Cc1cnc[nH]1)NC(=O)[C@H](CO)NC(=O)[C@H](CC(N)=O)NC(=O)[C@H](CCCCN)NC(=O)[C@H](CCCCN)NC(=O)[C@H](Cc1ccccc1)NC(=O)[C@H](Cc1c[nH]c2ccccc12)NC(=O)[C@H](CCCCN)NC(=O)CNC(=O)[C@H](Cc1c[nH]c2ccccc12)NC(=O)[C@@H](N)CCCN=C(N)N)C(=O)N[C@@H](CO)C(N)=O` [RWGKWFKKNSHLS], the minimum inhibitory concentration (MIC) is at least 80 µM in the experiment with Bacillus subtilis 168; at least 80 µM in experiment [1]; at least 80 µM in [2]; over 80 µM in experiment [3]; at least 80 µM in experiment [4]; at least 80 µM in [5].

With `CC[C@H](C)[C@H](NC(=O)[C@H](CCCN=C(N)N)NC(=O)[C@H](CCCN=C(N)N)NC(=O)[C@H](CCCN=C(N)N)NC(=O)[C@H](CO)NC(=O)[C@H](Cc1ccccc1)NC(=O)[C@H](CC(=O)O)NC(=O)[C@H](Cc1ccccc1)NC(=O)[C@H](CCCN=C(N)N)NC(=O)[C@H](CCCN=C(N)N)NC(=O)[C@H](CCCN=C(N)N)NC(=O)[C@@H](N)CO)C(=O)N[C@@H](Cc1ccc(O)cc1)C(=O)N[C@H](C(=O)N[C@@H](C)C(=O)N[C@@H](CCCN=C(N)N)C(=O)N[C@@H](CCCN=C(N)N)C(=O)N[C@@H](CCCN=C(N)N)C(=O)N[C@@H](CO)C(=O)N[C@@H](CC(C)C)C(=O)N[C@@H](C)C(=O)N[C@@H](Cc1ccccc1)C(=O)N[C@@H](C)C(=O)N[C@@H](Cc1cnc[nH]1)C(=O)N[C@@H](CCCN=C(N)N)C(=O)N[C@@H](CCCN=C(N)N)C(=O)N[C@@H](CCCN=C(N)N)C(=O)O)C(C)C` [SRRRFDFSRRRIYVARRRSLAFAHRRR], the MIC in experiment [6], in [7] and in experiment [8] was 6.25 µM (≈ 22.2 µg/mL) each time.

On to `CSCC[C@H](NC(=O)[C@H](CCCCN)NC(=O)[C@H](Cc1c[nH]c2ccccc12)NC(=O)[C@H](CCCN=C(N)N)NC(=O)[C@H](CCCCN)NC(=O)[C@H](Cc1ccccc1)NC(=O)[C@H](CC(C)C)NC(=O)[C@H](CCCN=C(N)N)NC(=O)[C@H](CCCCN)NC(=O)[C@@H](NC(=O)[C@H](CCCCN)NC(=O)[C@@H](N)CCCN=C(N)N)C(C)C)C(=O)O` [RKVKRLFKRWKM], for which the MIC in [9] was at least 59.7 µM; in [10], at least 59.7 µM; in [11] it was at least 477 µM; in experiment [12], at least 59.7 µM; in experiment [13], 29.8 µM (≈ 50 µg/mL).

In the case of `NCCCC[C@H](NC(=O)CNC(=O)[C@H](CCCCN)NC(=O)[C@H](CC(N)=O)NC(=O)[C@H](CCCCN)NC(=O)[C@H](Cc1cnc[nH]1)NC(=O)[C@H](CCCCN)NC(=O)CN)C(=O)N[C@@H](CCCCN)C(=O)N[C@@H](CC(N)=O)C(=O)NCC(=O)N[C@@H](CCCCN)C(=O)N[C@@H](Cc1cnc[nH]1)C(=O)N[C@@H](CC(N)=O)C(=O)NCC(=O)N[C@@H](Cc1c[nH]c2ccccc12)C(=O)N[C@@H](CCCCN)C(=O)N[C@@H](Cc1c[nH]c2ccccc12)C(=O)N[C@@H](Cc1c[nH]c2ccccc12)C(=O)N[C@@H](Cc1c[nH]c2ccccc12)C(=O)O` [GKHKNKGKKNGKHNGWKWWW], the minimal inhibitory concentration (MIC) is 3.19 µM (≈ 8 µg/mL) in experiment [14]; 2.26 µM (≈ 5.66 µg/mL) with Escherichia coli ESBL; 3.19 µM (≈ 8 µg/mL) in experiment [15]; 6.39 µM (≈ 16 µg/mL) against Pseudomonas aeruginosa; 1.6 µM (≈ 4 µg/mL) in experiment [16]; over 3.27 µM in experiment [17]. For the same compound, the values for the MIC (in experiment [18]; against Staphylococcus aureus MR; in experiment [19]) were 3.27 µM (≈ 8.19 µg/mL), 1.6 µM (≈ 4 µg/mL) and 3.27 µM (≈ 8.19 µg/mL), respectively.

For `CC[C@H](C)[C@@H]1NC(=O)[C@H](CC(C)C)NC(=O)[C@@H](NC(=O)[C@H](Cc2ccccc2)NC(=O)[C@H](CC(C)C)NC(=O)[C@H](CCCCN)NC(=O)[C@@H]2CCCN2C(=O)[C@H](CC(C)C)NC(=O)[C@@H](NC(=O)[C@H](CCCCN)NC(=O)[C@@H](NC(=O)[C@@H](NC(=O)[C@H](C)NC(=O)CNC(=O)[C@H](CC(C)C)NC(=O)[C@H](C)NC(=O)[C@@H](N)Cc2ccccc2)C(C)C)[C@@H](C)O)C(C)C)CSSC[C@@H](C(=O)O)NC(=O)[C@H](CCCCN)NC(=O)[C@H](CCCN=C(N)N)NC(=O)[C@H]([C@@H](C)O)NC1=O` [FALGAVTKVLPKLFCLITRKC], the minimal inhibitory concentration (MIC) in experiment [20] was 16 µM (≈ 37.1 µg/mL); in experiment [21], 16 µM (≈ 37.1 µg/mL); in experiment [22], at least 64 µM; in experiment [15], 64 µM (≈ 148 µg/mL); in experiment [23], 4 µM (≈ 9.28 µg/mL); in [24] it was 8 µM (≈ 18.6 µg/mL).

With `CC[C@H](C)[C@H](NC(=O)[C@H](CCCN=C(N)N)NC(=O)[C@@H](NC(=O)[C@@H]1CCCN1C(=O)[C@@H]1CCCN1C(=O)[C@H](CCCN=C(N)N)NC(=O)[C@H](CCCN=C(N)N)NC(=O)[C@H](Cc1ccccc1)NC(=O)[C@@H]1CCCN1C(=O)[C@H](CC(C)C)NC(=O)[C@H](CCCN=C(N)N)NC(=O)[C@H](Cc1ccccc1)NC(=O)[C@@H](N)CCCN=C(N)N)[C@@H](C)CC)C(=O)N[C@@H](Cc1cnc[nH]1)C(N)=O` [RFRLPFRRPPIRIH], the MIC is 16 µM (≈ 29.8 µg/mL) in [25]; 16 µM (≈ 29.8 µg/mL) in experiment [26]; 8 µM (≈ 14.9 µg/mL) in the experiment with Escherichia coli ML-35p; 16 µM (≈ 29.8 µg/mL) in experiment [27]; at least 64 µM in [28]; at least 128 µM in experiment [29]. Moreover, the MIC in experiment [30] amounted to 16 µM (≈ 29.8 µg/mL); in experiment [31] it was 2 µM (≈ 3.72 µg/mL).
